Values quoted from earlier work in patent US20070243268A1, “Compositions for regulating intestinal disorders and methods of use thereof” (priority 2005, published 2007).

Test system: prostate cancer
Details: 970 men, 200 mcg selenium daily (as selenium-enriched yeast) for 4.5 years

Compound: [Se] [selenium]
- reduction in the incidence of prostate cancer: 63%
